In patent US20040265803A1, “Genes and their genetic products pertinent to microsatellite instable (msi+) tumours” (priority 2000, published 2004):

Tested on: CD8+ T cells
Assay: IFN-gamma ELISpot analysis of T cells stimulated with neopeptide-loaded autologous CD40-activated B cells
Assay type: cell-based, human
Settings: T cells from HLA-A0201-positive healthy proband, weekly stimulation

Row | Sequence | reactivity (IFN-gamma ELISpot) (day 35) | reactivity (IFN-gamma ELISpot) (day 28)
1 | FLSASHFLL [peptide #15, HLA-A0201-restricted neopeptide encoded by mutated cMNR] | 1123 specific cells/1,000,000 cells | 
2 | SLYKFSPFPL [peptide #16, HLA-A0201-restricted neopeptide encoded by mutated cMNR] |  | 1760 specific cells/1,000,000 cells
3 | TLSPGWSAV [peptide #21, HLA-A0201-restricted neopeptide encoded by mutated cMNR] | 733 specific cells/1,000,000 cells | 
